Data published in US8450350B2, “Triazoles as inhibitors of fatty acid synthase” (Infinity Pharmaceuticals, Inc., priority 2010, dated 2013).
pIC50: −log10 of the molar value.

target: T1, human FASN (Homo sapiens, UniProt P49327); test: FASN NADPH consumption assay; format: biochemical; settings: IC50 class, FASN NADPH Consumption Assay (symbols without asterisk); human FASN purified from SKBR3 cells
T1 construct: purified from SKBR3 cells using procedures modified from those in Jayakumar et al; endogenous in cells; host or cells: SKBR3 cells (ATCC); endogenous FASN purified in house by ammonium sulfate precipitation and mono Q chromatography
Description: Human FASN protein (SEQ ID NO 1) was purified from SKBR3 cells using procedures modified from those in Jayakumar et al., PNAS (1995) 92:8695-8699. SKBR3 cells were obtained from ATCC and grown in DMEM high glucose medium supplemented with 10% FBS, 1 μg/mL bovine pancreas insulin, 100 U/mL penicillin and 100 μg/mL streptomycin. The confluent cells were trypsinized and washed three times with PBS buffer before frozen in liquid N2 and stored at −80° C. Frozen cells were thawed on ice and re-suspended in lysis buffer (25 mM Tris-HCl, pH 7.0, 15 mM NaCl, 1 mM EDTA, and 1 mM DTT) with protease inhibitors. The cells were lysed by sonication, and the cell debris was removed by centrifugation at 20,000 rpm for 30 min. To the supernatant, neutralized saturated ammonium sulfate solution was added to a final concentration of 35%. The solution was left on ice for 1 hr, and the precipitated proteins were harvested by centrifugation at 20,000 rpm for 30 min. The proteins were re-dissolved in lysis buffer without NaCl and loaded on a mono Q column. Bound proteins were eluted with a linear gradient of NaCl in lysis buffer. Each fraction was analyzed by SDS-PAGE and FASN NADPH consumption assay. The fractions containing FASN were pooled and concentrated to 2-3 mg/mL. Glycerol was added to 20%, and the protein was frozen in liquid N2 and stored at −80° C.
All chemicals were purchased from Sigma (St. Louis, Mo.). The procedures of NADPH consumption assay were similar to those described in Cox et al., PNAS (1983) 80:4233-4237. On a 96-well polypropylene microplate, dilution series (typical concentrations 60 nM-1.0 mM) of inhibitor compounds were prepared in DMSO, of which 4.0 μL each was transferred to a black polystyrene assay microplate and mixed with 36 μL FASN assay buffer (50 mM potassium phosphate, pH 7.0, 1.0 mM EDTA, 0.01% NP-40) plus 5.0 mM fresh DTT. FASN protein (40 μL 150 nM FASN) was added per well, and the microplate was incubated at 37° C. for 30 min. Enzyme activity measurement was initiated by addition of 20 μL 5× substrate mixture to final concentrations of 60 nM FASN, 2.4 nM-40 μM compound, 0.2 mM NADPH, 50 μM butyryl-CoA, 0.5 mM malonyl-CoA in 100 μL assay buffer plus 5.0 mM DTT and 4.0% DMSO. NADPH consumption was monitored kinetically by fluorescence (λEX=340 nm, λEm=460 nm) on an EnVision 2100 multilabel plate reader (Perkin Elmer, Waltham, Mass.). FASN enzyme activity (slope) in the presence of 4% DMSO was used as maximum control, whereas background (minimum control) was measured by omission of malonyl-CoA in the substrate mixture. Inhibition curves were fitted by a logistic function to yield IC50 values: […]

T1 sequence (P49327 whole entry): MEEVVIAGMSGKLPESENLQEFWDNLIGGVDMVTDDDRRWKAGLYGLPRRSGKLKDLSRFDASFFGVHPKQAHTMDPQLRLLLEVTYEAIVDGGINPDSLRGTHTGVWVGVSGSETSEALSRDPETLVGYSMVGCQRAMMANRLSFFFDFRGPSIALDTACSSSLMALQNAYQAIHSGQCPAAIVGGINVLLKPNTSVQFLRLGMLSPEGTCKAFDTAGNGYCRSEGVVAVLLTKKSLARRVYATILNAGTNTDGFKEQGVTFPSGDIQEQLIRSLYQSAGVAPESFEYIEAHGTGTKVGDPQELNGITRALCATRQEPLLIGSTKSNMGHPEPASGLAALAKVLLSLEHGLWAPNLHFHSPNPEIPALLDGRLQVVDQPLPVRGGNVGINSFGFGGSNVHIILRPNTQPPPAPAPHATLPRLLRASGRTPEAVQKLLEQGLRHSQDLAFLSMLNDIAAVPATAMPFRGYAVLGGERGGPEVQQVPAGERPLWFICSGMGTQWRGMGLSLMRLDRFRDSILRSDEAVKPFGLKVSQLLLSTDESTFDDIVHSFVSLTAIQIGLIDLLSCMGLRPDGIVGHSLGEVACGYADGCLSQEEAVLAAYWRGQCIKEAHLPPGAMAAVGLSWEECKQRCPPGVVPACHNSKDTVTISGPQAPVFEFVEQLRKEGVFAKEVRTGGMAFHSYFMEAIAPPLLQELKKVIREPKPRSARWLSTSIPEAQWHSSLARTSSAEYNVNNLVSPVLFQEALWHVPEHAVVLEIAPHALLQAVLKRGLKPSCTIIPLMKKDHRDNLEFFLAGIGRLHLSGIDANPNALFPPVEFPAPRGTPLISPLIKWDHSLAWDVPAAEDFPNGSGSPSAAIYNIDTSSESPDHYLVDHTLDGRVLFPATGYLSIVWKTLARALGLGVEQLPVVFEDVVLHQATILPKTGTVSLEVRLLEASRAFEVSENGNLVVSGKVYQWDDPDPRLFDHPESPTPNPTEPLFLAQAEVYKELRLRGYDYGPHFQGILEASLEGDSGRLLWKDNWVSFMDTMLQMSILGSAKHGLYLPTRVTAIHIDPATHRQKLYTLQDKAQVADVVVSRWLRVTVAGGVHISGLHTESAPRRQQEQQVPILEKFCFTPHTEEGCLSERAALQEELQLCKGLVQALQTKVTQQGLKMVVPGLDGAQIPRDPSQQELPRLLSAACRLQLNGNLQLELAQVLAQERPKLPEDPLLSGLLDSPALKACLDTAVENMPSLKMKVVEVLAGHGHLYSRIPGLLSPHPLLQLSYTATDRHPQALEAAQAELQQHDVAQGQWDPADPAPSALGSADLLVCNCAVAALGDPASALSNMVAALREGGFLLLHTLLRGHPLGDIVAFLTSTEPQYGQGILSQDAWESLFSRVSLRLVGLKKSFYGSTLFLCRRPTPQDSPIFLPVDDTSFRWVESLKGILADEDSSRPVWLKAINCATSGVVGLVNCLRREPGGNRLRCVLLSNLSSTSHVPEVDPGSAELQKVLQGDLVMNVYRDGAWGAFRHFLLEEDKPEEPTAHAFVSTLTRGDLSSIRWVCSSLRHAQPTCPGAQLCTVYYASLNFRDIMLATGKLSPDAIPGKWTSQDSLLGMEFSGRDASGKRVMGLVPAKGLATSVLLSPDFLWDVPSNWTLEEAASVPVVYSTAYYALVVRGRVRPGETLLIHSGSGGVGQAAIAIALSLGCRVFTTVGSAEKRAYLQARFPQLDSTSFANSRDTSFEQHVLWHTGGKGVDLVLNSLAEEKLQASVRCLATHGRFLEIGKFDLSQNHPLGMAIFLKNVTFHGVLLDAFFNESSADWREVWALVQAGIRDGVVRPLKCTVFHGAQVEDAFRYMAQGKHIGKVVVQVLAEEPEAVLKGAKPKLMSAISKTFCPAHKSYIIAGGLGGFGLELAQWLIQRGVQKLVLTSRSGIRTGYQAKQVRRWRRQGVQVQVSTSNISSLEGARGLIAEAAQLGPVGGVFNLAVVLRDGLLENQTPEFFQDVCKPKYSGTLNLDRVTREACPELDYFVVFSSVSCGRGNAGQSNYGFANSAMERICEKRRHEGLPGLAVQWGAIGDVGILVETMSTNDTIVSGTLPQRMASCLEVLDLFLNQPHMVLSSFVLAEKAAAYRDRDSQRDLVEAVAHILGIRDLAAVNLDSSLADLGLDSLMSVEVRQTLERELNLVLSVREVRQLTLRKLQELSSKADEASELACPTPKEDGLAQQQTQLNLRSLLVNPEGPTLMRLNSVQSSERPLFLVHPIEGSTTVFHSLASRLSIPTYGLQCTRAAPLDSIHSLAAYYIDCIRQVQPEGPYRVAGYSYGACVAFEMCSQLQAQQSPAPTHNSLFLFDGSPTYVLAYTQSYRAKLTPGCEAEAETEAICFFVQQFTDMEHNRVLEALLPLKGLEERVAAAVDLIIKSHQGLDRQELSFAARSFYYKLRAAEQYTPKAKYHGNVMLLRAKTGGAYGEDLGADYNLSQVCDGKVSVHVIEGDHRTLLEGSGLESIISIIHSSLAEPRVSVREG

Compound | pIC50
C[C@H]1[C@H](NC(=O)c2c(-c3ccccc3Oc3ccccc3)nnn2C(=O)N2CCCC3CCCCC32)C[C@H]2C[C@@H]1C2(C)C (stereo partly shown) | < 6.00
CCN(C(=O)n1cc(-c2ccccc2Cl)nn1)c1ccccc1 | 6.00 to 6.30
CCN(C(=O)n1nnc(-c2c(F)cccc2Cl)c1C#N)c1ccccc1 | > 6.70
N#Cc1c(-c2c(Cl)cccc2Cl)nnn1C(=O)N1CCCC2CCCCC21 (stereo not shown) | 6.30 to 6.70
CCN(C(=O)n1nnc(-c2c(F)cccc2F)c1C#N)c1ccccc1 | > 6.70
N#Cc1c(-c2ccccc2CCc2ccccc2)nnn1C(=O)N1CCCC2CCCCC21 (stereo not shown) | > 6.70
CC(=O)N1CCC(N(Cc2ccccc2)C(=O)n2nnc(-c3ccccc3Oc3ccccc3)c2C#N)CC1 | < 6.00
CCOC(=O)c1c(-c2ccccc2Oc2ccccc2)nnn1C(=O)N1CCCC2CCCCC21 (stereo not shown) [ethyl 1-(decahydroquinoline-1-carbonyl)-4-(2-phenoxyphenyl)-1H-1,2,3-triazole-5-carboxylate] | 6.00 to 6.30
CCN(C(=O)n1nncc1-c1ccccc1Cl)c1ccccc1F | < 6.00
CCN(C(=O)n1nnc(-c2ccccc2Oc2ccccc2)c1C#N)c1ccccc1 | > 6.70
C[C@H](NC(=O)c1ccccc1-c1nnn(C(=O)N2CCCC3CCCCC32)c1C#N)c1ccccc1 (stereo partly shown) | > 6.70
O=C(N1CCCC2CCCCC21)n1nnc2ncccc21 (stereo not shown) | < 6.00
CCN(C(=O)n1cc(-c2ccccc2)nn1)C1CCCCC1 | < 6.00
CCOC(=O)c1c(C2CC3C=CC2C3)nnn1C(=O)N1CCCC2CCCCC21 (stereo not shown) | < 6.00
O=C(N1CCCC2CCCCC21)n1nnc2ccccc21 (stereo not shown) | < 6.00
CCN(C(=O)n1nnc(-c2c(Cl)cccc2Cl)c1C#N)c1ccccc1 | > 6.70

Compound | pIC50
C[C@@H]1[C@@H](NC(=O)c2ccccc2-c2nnn(C(=O)N3CCCC4CCCCC43)c2C#N)C[C@@H]2C[C@H]1C2(C)C (stereo partly shown) | 6.00 to 6.30
CCN(C(=O)n1nnc2ncccc21)c1ccccc1 | 6.00 to 6.30
CCN(C(=O)n1cc(-c2ccccc2Cl)nn1)c1ccccc1F | < 6.00
CCOC(=O)c1c(-c2ccccc2Oc2ccccc2)nnn1C(=O)N(CC)c1ccccc1 | 6.00 to 6.30
CCN(C(=O)n1nncc1-c1ccccc1)C1CCCCC1 | < 6.00
CCN(C(=O)n1nnc2ccccc21)c1ccc(C(=O)O)cc1 | < 6.00
CCN(C(=O)n1nnc(-c2c(F)cccc2Cl)c1C#N)c1ccccc1F | > 6.70
CCN(C(=O)n1nncc1-c1ccccc1Cl)c1ccccc1 | < 6.00
CCN(C(=O)n1nnc(C2CCCCC2)c1C#N)c1ccccc1 | 6.30 to 6.70
C[C@H]1[C@H](NC(=O)c2ccccc2-c2nnn(C(=O)N3CCCC4CCCCC43)c2C#N)C[C@H]2C[C@@H]1C2(C)C (stereo partly shown) | 6.30 to 6.70
COC(=O)C1CCc2ccccc2N1C(=O)n1nnc(-c2ccccc2Oc2ccccc2)c1C#N (stereo not shown) | 6.00 to 6.30
CC(C)(C)OC(=O)N1CCC(N(Cc2ccccc2)C(=O)n2nnc(-c3ccccc3Oc3ccccc3)c2C#N)CC1 | < 6.00
N#Cc1c(-c2c(F)cccc2F)nnn1C(=O)N1CCCC2CCCCC21 (stereo not shown) | 6.30 to 6.70
CCN(C(=O)n1nnc2ccccc21)c1ccccc1F | 6.00 to 6.30
C[C@@H](NC(=O)c1ccccc1-c1nnn(C(=O)N2CCCC3CCCCC32)c1C#N)c1ccccc1 (stereo partly shown) | 6.30 to 6.70
C[C@@H]1[C@@H](NC(=O)c2c(-c3ccccc3Oc3ccccc3)nnn2C(=O)N2CCCC3CCCCC32)C[C@@H]2C[C@H]1C2(C)C (stereo partly shown) | < 6.00

target: T1, human FASN; test: FASN Scintillation Proximity Flashplate assay; format: biochemical; settings: IC50 class, FASN Scintillation Proximity Flashplate Assay (symbols with asterisk); human FASN purified from SKBR3 cells
Description: Human FASN protein (SEQ ID NO 1) was purified from SKBR3 cells using procedures modified from those in Jayakumar et al., PNAS (1995) 92:8695-8699. SKBR3 cells were obtained from ATCC and grown in DMEM high glucose medium supplemented with 10% FBS, 1 μg/mL bovine pancreas insulin, 100 U/mL penicillin and 100 μg/mL streptomycin. The confluent cells were trypsinized and washed three times with PBS buffer before frozen in liquid N2 and stored at −80° C. Frozen cells were thawed on ice and re-suspended in lysis buffer (25 mM Tris-HCl, pH 7.0, 15 mM NaCl, 1 mM EDTA, and 1 mM DTT) with protease inhibitors. The cells were lysed by sonication, and the cell debris was removed by centrifugation at 20,000 rpm for 30 min. […] Each fraction was analyzed by SDS-PAGE and FASN NADPH consumption assay. […]
Acetyl-coenzyme A, malonyl-coenzyme A, NADPH, bovine gamma globulin, and orlistat were purchased from Sigma (St. Louis, Mo.). […] The plates were read in a Wallac 1450 Microbeta Plus liquid scintillation counter (Perkin Elmer, Waltham, Mass.), and counts per minute (CPM) were collected over 2 min. Each inhibitor well CPM was compared to the maximum FASN enzyme activity (Max) CPM and the background (Min) CPM, as measured by omission of FASN enzyme in the background well. % Inhibition values were calculated, and curves were fitted by a four-parameter logistic function to yield IC50 values: […]

Compound | pIC50
CCN(C(=O)n1nnc(-c2ccccc2CCc2ccccc2)c1C#N)c1ccccc1 | > 6.70
CC(C)N(C(=O)n1nnc(-c2c(F)cccc2F)c1C#N)c1cccc(C(=O)O)c1 [3-(5-cyano-4-(2,6-difluorophenyl)-N-isopropyl-1H-1,2,3-triazole-1-carboxamido)benzoic acid] | > 6.70
